In patent publication US20040142952A1, “Triazoloquinazoline and pyrazolotriazolopyrimidine derivatives, medicinal compositions, adenosine a3 receptor affinity agents, ocular tension lowering agents, preparations for preventing and treating glaucoma and method of lowering ocular tension” (priority 2001, published 2004):

SMILES	melting point [°C]
CCCCc1nc2nn(CC(=O)OCC)cc2c2nc(-c3ccc(F)cc3)nn12 [Example 131, ethyl 2-[5-n-butyl-2-(4-fluorophenyl)pyrazolo[4,3-e]-1,2,4-triazolo[1,5-c]pyrimidin-8-yl]acetate]	164 to 165
CCCCc1nc2nn(CCC)cc2c2nc(-c3ccc(F)cc3)nn12 [Example 125, 5-n-butyl-2-(4-fluorophenyl)-8-n-propylpyrazolo[4,3-e]-1,2,4-triazolo[1,5-c]pyrimidine]	106.5 to 107.5
CCCCc1nc2c(cnn2CCO)c2nc(-c3ccc(Cl)cc3)nn12 [Example 138, 5-n-butyl-2-(4-chlorophenyl)-7-(2-hydroxyethyl)pyrazolo[4,3-e]-1,2,4-triazolo[1,5-c]pyrimidine]	164 to 164.5
CCCCc1nc2nncc-2c2nc(-c3ccco3)[nH]n12 [Example 19, 5-n-butyl-2-(2-furyl)pyrazolo[4,3-e]-1,2,4-triazolo[1,5-c]pyrimidine]	253 to 254.5
CCCCc1nc2c(cnn2CCO)c2nc(-c3ccc(OC)cc3)nn12 [Example 140, 5-n-butyl-7-(2-hydroxyethyl)-2-(4-methoxyphenyl)pyrazolo[4,3-e]-1,2,4-triazolo[1,5-c]pyrimidine]	147.5 to 148.5
CCCCc1nc2c(cnn2CCC)c2nc(-c3ccc(Cl)cc3)nn12 [Example 126, 5-n-butyl-2-(4-chlorophenyl)-7-n-propylpyrazolo[4,3-e]-1,2,4-triazolo[1,5-c]pyrimidine]	131.5 to 132
CCc1nc2ccccc2c2nc(-c3ccc(Cl)cc3)nn12 [Example 68, 2-(4-chlorophenyl)-5-ethyl-1,2,4-triazolo[1,5-c]quinazoline]	197 to 198
CCCCCc1nc2ccccc2c2nc(-c3ccc(F)cc3)nn12 [Example 95, 2-(4-fluorophenyl)-5-n-pentyl-1,2,4-triazolo[1,5-c]quinazoline]	133.5 to 134
CCCCc1nc2cc(Cl)ccc2c2nc(-c3ccc(F)cc3)nn12 [Example 80, 5-n-butyl-8-chloro-2-(4-fluorophenyl)-1,2,4-triazolo[1,5-c]quinazoline]	185.5 to 186.5
CCCCc1nc2nn(CCC)cc2c2nc(-c3ccccc3)nn12 [Example 113, 5-n-butyl-2-phenyl-8-n-propylpyrazolo[4,3-e]-1,2,4-triazolo[1,5-c]pyrimidine]	107 to 108
Cc1ccc(-c2nc3c4cnnc-4nc(CCCC(=O)O)n3[nH]2)cc1 [Example 150, 4-[2-(4-methylphenyl)pyrazolo[4,3-e]-1,2,4-triazolo[1,5-c]pyrimidin-5-yl]butyric acid]	249 to 251
COc1ccc(-c2nc3c4cnnc-4nc(CCCC(=O)O)n3[nH]2)cc1 [Example 148, 4-[2-(4-methoxyphenyl)pyrazolo[4,3-e]-1,2,4-triazolo[1,5-c]pyrimidin-5-yl]butyric acid]	247.5 to 249
CCCCc1nc2nn(CC)cc2c2nc(-c3ccc(C)cc3)nn12 [Example 143, 5-n-butyl-8-ethyl-2-(4-methylphenyl)pyrazolo[4,3-e]-1,2,4-triazolo[1,5-c]pyrimidine]	128 to 129
CCCCc1nc2nncc-2c2nc(-c3cccnc3)[nH]n12 [Example 18, 5-n-butyl-2-(3-pyridyl)pyrazolo[4,3-e]-1,2,4-triazolo[1,5-c]pyrimidine]	217 to 219
COC(=O)CCCc1nc2ccccc2c2nc(-c3ccc(F)cc3)nn12 [Example 98, methyl 4-[2-(4-fluorophenyl)-1,2,4-triazolo[1,5-c]quinazolin-5-yl]butyrate]	167 to 168
CCCCc1nc2ccccc2c2nc(-c3ccc(C(C)(C)C)cc3)nn12 [Example 29, 5-n-butyl-2-(4-t-butylphenyl)-1,2,4-triazolo[1,5-c]quinazoline]	106 to 108
CCCCCc1nc2ccccc2c2nc(-c3ccc(OCC)cc3)nn12 [Example 106, 2-(4-ethoxyphenyl)-5-n-pentyl-1,2,4-triazolo[1,5-c]quinazoline]	116 to 117
CCCCc1nc2nn(CCO)cc2c2nc(-c3ccc(F)cc3)nn12 [Example 135, 5-n-butyl-2-(4-fluorophenyl)-8-(2-hydroxyethyl)pyrazolo[4,3-e]-1,2,4-triazolo[1,5-c]pyrimidine]	202 to 203
COC(=O)CCCc1nc2ccc(Cl)cc2c2nc(-c3ccc(Cl)cc3)nn12 [Example 104, methyl 4-[9-chloro-2-(4-chlorophenyl)-1,2,4-triazolo[1,5-c]quinazolin-5-yl]butyrate]	145 to 146.5
CCCCc1nc2cc(OC)c(OC)cc2c2nc(-c3ccccc3)nn12 [Example 48, 5-n-butyl-8,9-dimethoxy-2-phenyl-1,2,4-triazolo[1,5-c]quinazoline]	150 to 152
CCCCc1nc2nncc-2c2nc(-c3ccc([N+](=O)[O-])cc3)[nH]n12 [Example 17, 5-n-butyl-2-(4-nitrophenyl)pyrazolo[4,3-e]-1,2,4-triazolo[1,5-c]pyrimidine]	279 to 280.5
CCCCc1nc2nncc-2c2nc(-c3ccccc3OC)[nH]n12 [Example 53, 5-n-butyl-2-(2-methoxyphenyl)pyrazolo[4,3-e]-1,2,4-triazolo[1,5-c]pyrimidine]	157 to 160

SMILES	melting point [°C]
CCCCc1nc2ccccc2c2nc(-c3cccc(OC)c3)nn12 [Example 57, 5-n-butyl-2-(3-methoxyphenyl)-1,2,4-triazolo[1,5-c]quinazoline]	118 to 119
CCCCCc1nc2ccccc2c2nc(-c3ccc(OC)cc3)nn12 [Example 105, 2-(4-methoxyphenyl)-5-n-pentyl-1,2,4-triazolo[1,5-c]quinazoline]	123 to 125
CCCCc1nc2nn(CC(=O)OCC)cc2c2nc(-c3ccccc3)nn12 [Example 129, ethyl 2-(5-n-butyl-2-phenylpyrazolo[4,3-e]-1,2,4-triazolo[1,5-c]pyrimidin-8-yl)acetate]	136 to 137
CCCCc1nc2ccccc2c2nc(-c3cccs3)nn12 [Example 42, 5-n-butyl-2-(2-thienyl)-1,2,4-triazolo[1,5-c]quinazoline]	147 to 149.5
CCc1nc2ccccc2c2nc(-c3ccc(Br)cc3)nn12 [Example 66, 2-(4-bromophenyl)-5-ethyl-1,2,4-triazolo[1,5-c]quinazoline]	197 to 198
CCc1nc2nncc-2c2nc(-c3ccc(Cl)cc3)[nH]n12 [Example 64, 2-(4-chlorophenyl)-5-ethylpyrazolo[4,3-e]-1,2,4-triazolo[1,5-c]pyrimidine]	> 280
CCCCc1nc2ccccc2c2nc(-c3ccc(OCCC)cc3)nn12 [Example 36, 5-n-butyl-2-(4-propoxyphenyl)-1,2,4-triazolo[1,5-c]quinazoline]	128 to 129
O=C(O)CCCc1nc2ccccc2c2nc(-c3ccc(Br)cc3)nn12 [Example 154, 4-[2-(4-bromophenyl)-1,2,4-triazolo[1,5-c]quinazolin-5-yl]butyric acid]	219 to 220
CCCCc1nc2cccc(F)c2c2nc(-c3ccccc3)nn12 [Example 43, 5-n-butyl-10-fluoro-2-phenyl-1,2,4-triazolo[1,5-c]quinazoline]	123 to 124
CCCCCCc1nc2nncc-2c2nc(-c3ccccc3)[nH]n12 [Example 88, 5-n-hexyl-2-phenylpyrazolo[4,3-e]-1,2,4-triazolo[1,5-c]pyrimidine]	207 to 208
CCCCc1nc2ccc(Cl)cc2c2nc(-c3ccc(F)cc3)nn12 [Example 74, 5-n-butyl-9-chloro-2-(4-fluorophenyl)-1,2,4-triazolo[1,5-c]quinazoline]	147.5 to 150
CCCCc1nc2c(cnn2CCC)c2nc(-c3ccc(C)cc3)nn12 [Example 122, 5-n-butyl-2-(4-methylphenyl)-7-n-propylpyrazolo[4,3-e]-1,2,4-triazolo[1,5-c]pyrimidine]	113 to 113.5
CCCCc1nc2ccccc2c2nc(-c3ccc(SC)cc3)nn12 [Example 58, 5-n-butyl-2-(4-methylthiophenyl)-1,2,4-triazolo[1,5-c]quinazoline]	140.5 to 141.5
CCCCc1nc2nn(CC)cc2c2nc(-c3ccccc3)nn12 [Example 115, 5-n-butyl-8-ethyl-2-phenylpyrazolo[4,3-e]-1,2,4-triazolo[1,5-c]pyrimidine]	122.5 to 123
CCCCc1nc2c(cnn2C)c2nc(-c3ccc(Cl)cc3)nn12 [Example 118, 2-(4-chlorophenyl)-5-n-butyl-7-methylpyrazolo[4,3-e]-1,2,4-triazolo[1,5-c]pyrimidine]	147.5 to 148.5
CCCCc1nc2ccc(Br)cc2c2nc(-c3ccccc3)nn12 [Example 47, 9-bromo-5-n-butyl-2-phenyl-1,2,4-triazolo[1,5-c]quinazoline]	129.5 to 132.5
CCCc1nc2nncc-2c2nc(-c3ccc(C)cc3)[nH]n12 [Example 60, 2-(4-methylphenyl)-5-n-propylpyrazolo[4,3-e]-1,2,4-triazolo[1,5-c]pyrimidine]	274 to 275
CCCCc1nc2nn(C)cc2c2nc(-c3ccc(C)cc3)nn12 [Example 121, 5-n-butyl-8-methyl-2-(4-methylphenyl)pyrazolo[4,3-e]-1,2,4-triazolo[1,5-c]pyrimidine]	180 to 181
CCCCc1nc2c(cnn2CCO)c2nc(-c3ccccc3)nn12 [Example 132, 5-n-butyl-7-(2-hydroxyethyl)-2-phenylpyrazolo[4,3-e]-1,2,4-triazolo[1,5-c]pyrimidine]	132 to 133
CCCCc1nc2nncc-2c2nc(-c3ccc(SC)cc3)[nH]n12 [Example 56, 5-n-butyl-2-(4-methylthiophenyl)pyrazolo[4,3-e]-1,2,4-triazolo[1,5-c]pyrimidine]	204 to 205
CCCCc1nc2c(cnn2CCO)c2nc(-c3ccc(F)cc3)nn12 [Example 134, 5-n-butyl-2-(4-fluorophenyl)-7-(2-hydroxyethyl)pyrazolo[4,3-e]-1,2,4-triazolo[1,5-c]pyrimidine]	150.5 to 151.5
CCCc1nc2ccccc2c2nc(-c3ccccc3)nn12 [Example 21, 2-phenyl-5-propyl-1,2,4-triazolo[1,5-c]quinazoline]	143 to 144
